Experimental data reported in patent US11052092B2, “N-{[2-(piperidin-1-yl)phenyl](phenyl)methyl}-2-(3-oxo-3,4-dihydro-2H-1,4-benzoxazin-7-yl)acetamide derivatives and related compounds as ROR-gamma modulators for treating autoimmune diseases” (Genfit, priority 2017, dated 2021).
Structures can show the parent of a compound that is named as a salt.

Target: T1, human RORγt (Homo sapiens, UniProt P51449)
T1 construct: the full-length cDNA of human RORγt; expressed in transfected cells; host or cells: COS-7 (monkey kidney)
T1 sequence (P51449 1-497 isoform P51449-2): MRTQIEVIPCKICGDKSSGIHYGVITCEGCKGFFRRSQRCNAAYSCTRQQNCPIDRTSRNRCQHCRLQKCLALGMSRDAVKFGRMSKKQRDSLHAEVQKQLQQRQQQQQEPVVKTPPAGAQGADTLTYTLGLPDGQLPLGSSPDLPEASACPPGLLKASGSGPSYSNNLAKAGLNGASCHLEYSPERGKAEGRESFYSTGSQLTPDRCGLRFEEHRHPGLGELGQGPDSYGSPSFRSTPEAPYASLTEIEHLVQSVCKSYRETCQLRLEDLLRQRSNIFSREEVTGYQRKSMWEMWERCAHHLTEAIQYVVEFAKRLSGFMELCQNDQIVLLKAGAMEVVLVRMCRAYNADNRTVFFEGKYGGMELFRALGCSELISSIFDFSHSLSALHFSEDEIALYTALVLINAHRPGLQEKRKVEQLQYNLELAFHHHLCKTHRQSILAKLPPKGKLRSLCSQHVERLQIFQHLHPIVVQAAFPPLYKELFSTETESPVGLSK
Assay: RORE Luciferase/RORγt transactivation assay
Format: cell-based
Conditions: COS-7 cells transfected with human IL-17 promoter luciferase reporter and RORγt plasmid; 20 h with compound; read-out: IC50, RORγt activity inhibition
How it was run: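 COS-7 cells were transiently co-transfected with a human IL-17 promoter (RORE/CNS)–luciferase reporter and a RORγt expression plasmid, then seeded at 10000 cells/well in serum-free, phenol red-free DMEM. Compounds were added at 0.3% DMSO final. Luciferase was read with Steady-Glo, and IC50 and Emax were derived.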
`Cc1ccc(C(NC(=O)Cc2ccc3c(c2)C(C)C(=O)N3)c2ccc(C)o2)c(N2CCCCC2)c1` (stereo not drawn) [Cpd. 49, N-{[4-methyl-2-(piperidin-1-yl)phenyl](5-methylfuran-2-yl)methyl}-2-(3-methyl-2-oxo-2,3-dihydro-1H-indol-5-yl)acetamide] gave an IC50 of 10 to 100 nM. In the case of `Cc1ccc(C(NC(=O)C2(c3ccc4c(c3)CCN4)CC2)c2ccc(C)o2)c(C)c1` (stereo not drawn) [Cpd. 142, 1-(2,3-dihydro-1H-indol-5-yl)-N-[(2,4-dimethylphenyl)(5-methylfuran-2-yl)methyl]cyclopropane-1-carboxamide], the IC50 is reported as 10 to 100 nM.

System: not given
Assay: not given
Conditions: not given
Work on `Cc1ccc(C(NC(=O)C2(c3ccc4c(c3)CS(=O)(=O)N4C)CC2)c2ccc(Cl)o2)c(C)c1` (stereo not drawn) (as salt: HCl) [Cpd. 160, N-[(5-chlorofuran-2-yl)(2,4-dimethylphenyl)methyl]-1-(1-methyl-2,2-dioxo-1,3-dihydro-2,1-benzothiazol-5-yl)cyclopropane-1-carboxamide] yielded a melting point of 70 °C. Work on `Cc1ccc(C(NC(=O)C2(c3ccc4c(c3)OCO4)CC2)c2ccc(C)o2)c(Br)c1` (stereo not drawn) (as salt: HCl) [Cpd. 161, 1-(2H-1,3-benzodioxol-5-yl)-N-[(2-bromo-4-methylphenyl)(5-methylfuran-2-yl)methyl]cyclopropane-1-carboxamide] yielded a melting point of 55 °C. In the case of `Cc1ccc(C(NC(=O)C2(c3ccc4c(c3)CS(=O)(=O)N4CC3CCOCC3)CC2)c2ccc(C)o2)c(N2CCCCC2)c1` (stereo not drawn) (as salt: HCl) [Cpd. 162, N-{[4-methyl-2-(piperidin-1-yl)phenyl](5-methylfuran-2-yl)methyl}-1-[1-(oxan-4-ylmethyl)-2,2-dioxo-1,3-dihydro-2,1-benzothiazol-5-yl]cyclopropane-1-carboxamide], the melting point is reported as 87 °C. With `Cc1ccc(C(NC(=O)C2(c3ccc4c(c3)CS(=O)(=O)N4CC3CCOCC3)CC2)c2ccc(C)o2)c(Br)c1` (stereo not drawn) (as salt: HCl) [Cpd. 163, N-[(2-bromo-4-methylphenyl)(5-methylfuran-2-yl)methyl]-1-[1-(oxan-4-ylmethyl)-2,2-dioxo-1,3-dihydro-2,1-benzothiazol-5-yl]cyclopropane-1-carboxamide] the melting point was 85 °C. Work on `Cc1ccc(C(NC(=O)C2(c3ccc4c(c3)OCO4)CC2)c2ccc(C)o2)c(N2CCCCC2)c1` (stereo not drawn) (as salt: HCl) [Cpd. 164, 1-(2H-1,3-benzodioxol-5-yl)-N-{[4-methyl-2-(piperidin-1-yl)phenyl](5-methylfuran-2-yl)methyl}cyclopropane-1-carboxamide] yielded a melting point of 51 °C. `Cc1ccc(C(NC(=O)C2(c3ccc4c(c3)CCC4=NO)CC2)c2ccc(C)o2)c(C)c1` (stereo not drawn) (as salt: HCl) [Cpd. 165, N-[(2,4-dimethylphenyl)(5-methylfuran-2-yl)methyl]-1-[1-(hydroxyimino)-2,3-dihydro-1H-inden-5-yl]cyclopropane-1-carboxamide] showed a melting point of 68 °C. Compound `Cc1ccc(C(NC(=O)Cc2ccc3c(c2)CS(=O)(=O)N3CC2CCOCC2)c2ccc(C)o2)c(C)c1` (stereo not drawn) (as salt: HCl) [Cpd. 166, N-[(2,4-dimethylphenyl)(5-methylfuran-2-yl)methyl]-2-[1-(oxan-4-ylmethyl)-2,2-dioxo-1,3-dihydro-2,1-benzothiazol-5-yl]acetamide] has a melting point of 83 °C. In the case of `Cc1ccc(C(NC(=O)Cc2ccc3c(c2)CS(=O)(=O)N3CC2CCOCC2)c2ccc(C)o2)c(N2CCCCC2)c1` (stereo not drawn) (as salt: HCl) [Cpd. 167, N-{[4-methyl-2-(piperidin-1-yl)phenyl](5-methylfuran-2-yl)methyl}-2-[1-(oxan-4-ylmethyl)-2,2-dioxo-1,3-dihydro-2,1-benzothiazol-5-yl]acetamide], the melting point is reported as 85 °C. For `Cc1ccc(C(NC(=O)C2(c3ccc4c(c3)OCS(=O)(=O)N4C)CC2)c2ccc(C)o2)c(C)c1` (stereo not drawn) (as salt: HCl) [Cpd. 172, N-[(2,4-dimethylphenyl)(5-methylfuran-2-yl)methyl]-1-(1-methyl-2,2-dioxo-1,3-dihydro-4,2,1-benzoxathiazin-6-yl)cyclopropane-1-carboxamide], the melting point was 65 °C. For `Cc1ccc(C(NC(=O)C2(c3ccc4c(c3)OCS(=O)(=O)N4C)CC2)c2ccc(C)o2)c(Br)c1` (stereo not drawn) (as salt: HCl) [Cpd. 173, N-[(2-bromo-4-methylphenyl)(5-methylfuran-2-yl)methyl]-1-(1-methyl-2,2-dioxo-1,3-dihydro-4,2,1-benzoxathiazin-6-yl)cyclopropane-1-carboxamide], the melting point was 71 °C. In the case of `Cc1ccc(C(NC(=O)Cc2ccc3c(ccn3S(C)(=O)=O)c2)c2ccc(C)o2)c(N2CCCCC2)c1` (stereo not drawn) (as salt: ammonium) [Cpd. 106, 2-(1-methanesulfonyl-1H-indol-5-yl)-N-{[4-methyl-2-(piperidin-1-yl)phenyl](5-methylfuran-2-yl)methyl}acetamide], the melting point is reported as 83 °C. `CCSc1nc2cc(CC(=O)NC(c3ccccc3)c3ccc(C)cc3Br)ccc2[nH]1` (stereo not drawn) (as salt: hydrochloride) [Cpd. 92, N-[(2-bromo-4-methylphenyl)(phenyl)methyl]-2-[2-(ethylsulfanyl)-1H-1,3-benzodiazol-5-yl]acetamide] showed a melting point of 103 °C. For `Cc1ccc(C(NC(=O)Cc2ccc3c(c2)C(=O)C(=O)N3C)c2ccc(C)o2)c(N2CCCCC2)c1` (stereo not drawn) (as salt: sodium) [Cpd. 45, 2-(1-methyl-2,3-dioxo-2,3-dihydro-1H-indol-5-yl)-N-{[4-methyl-2-(piperidin-1-yl)phenyl](5-methylfuran-2-yl)methyl}acetamide], the melting point was 99 °C. For `Cc1ccc(C(NC(=O)Cc2ccc3c(c2)C(O)C(=O)N3)c2ccc(C)o2)c(N2CCCCC2)c1` (stereo not drawn) (as salt: sodium) [Cpd. 46, 2-(3-hydroxy-2-oxo-2,3-dihydro-1H-indol-5-yl)-N-{[4-methyl-2-(piperidin-1-yl)phenyl](5-methylfuran-2-yl)methyl}acetamide], the melting point was 110 °C. For `Cc1ccc(C(NC(=O)Cc2ccc3c(c2)CCC3O)c2ccc(C)o2)c(N2CCCCC2)c1` (stereo not drawn) (as salt: sodium) [Cpd. 52, 2-(1-hydroxy-2,3-dihydro-1H-inden-5-yl)-N-{[4-methyl-2-(piperidin-1-yl)phenyl](5-methylfuran-2-yl)methyl}acetamide], the melting point was 97 °C. With `Cc1ccc(C(NC(=O)Cc2ccc3c(c2)C(O)CC3)c2ccc(C)o2)c(N2CCCCC2)c1` (stereo not drawn) (as salt: sodium) [Cpd. 85, 2-(3-hydroxy-2,3-dihydro-1H-inden-5-yl)-N-{[4-methyl-2-(piperidin-1-yl)phenyl](5-methylfuran-2-yl)methyl}acetamide] the melting point was 60 °C. `Cc1ccc(C(NC(=O)Cc2ccc3c(ccn3CC3CCOCC3)c2)c2ccc(C)o2)c(N2CCCCC2)c1` (stereo not drawn) (as salt: sodium) [Cpd. 113, N-{[4-methyl-2-(piperidin-1-yl)phenyl](5-methylfuran-2-yl)methyl}-2-[1-(oxan-4-ylmethyl)-1H-indol-5-yl]acetamide] showed a melting point of 67 °C. Work on `Cc1ccc(C(NC(=O)C2(c3ccc4c(ccn4CCC(=O)O)c3)CC2)c2ccc(C)o2)c(N2CCCCC2)c1` (stereo not drawn) (as salt: sodium) [Cpd. 154, 3-{5-[1-({[4-methyl-2-(piperidin-1-yl)phenyl](5-methylfuran-2-yl)methyl}carbamoyl)cyclopropyl]-1H-indol-1-yl}propanoic acid] yielded a melting point of 90 °C. In the case of `Cc1ccc(C(NC(=O)C2(c3ccc4c(c3)CCC4O)CC2)c2ccc(C)o2)c(C)c1` (stereo not drawn) (as salt: sodium) [Cpd. 155, N-[(2,4-dimethylphenyl)(5-methylfuran-2-yl)methyl]-1-(1-hydroxy-2,3-dihydro-1H-inden-5-yl)cyclopropane-1-carboxamide], the melting point is reported as 58 °C. In the case of `Cc1ccc(C(NC(=O)Cc2ccc3c(c2)/C(=N/N)C(=O)N3)c2ccc(C)o2)c(N2CCCCC2)c1` (stereo not drawn) (hydrate or solvate) [Cpd. 84, 2-[(3Z)-3-hydrazinylidene-2-oxo-2,3-dihydro-1H-indol-5-yl]-N-{[4-methyl-2-(piperidin-1-yl)phenyl](5-methylfuran-2-yl)methyl}acetamide], the melting point is reported as 130 °C. Compound `Cc1ccc(C(NC(=O)Cc2ccc3c(c2)C(C)C(=O)N3)c2ccc(C)o2)c(N2CCCCC2)c1` (stereo not drawn) [Cpd. 49, N-{[4-methyl-2-(piperidin-1-yl)phenyl](5-methylfuran-2-yl)methyl}-2-(3-methyl-2-oxo-2,3-dihydro-1H-indol-5-yl)acetamide] has a melting point of 102 °C. Work on `Cc1ccc(C(NC(=O)C2(c3ccc4c(c3)CCN4)CC2)c2ccc(C)o2)c(C)c1` (stereo not drawn) [Cpd. 142, 1-(2,3-dihydro-1H-indol-5-yl)-N-[(2,4-dimethylphenyl)(5-methylfuran-2-yl)methyl]cyclopropane-1-carboxamide] yielded a melting point of 57 °C.
